The subject of one series is endolymphatic space. The conditions noted are these: oral; cited from earlier work.
Series [1] deals with experimental endolymphatic hydrops. The series can be described thus: Endolymphatic hydrops decompression effect: IR-L, IR-S and regression lines in the operated ear. It counts as in vivo, guinea pigs. The conditions noted are these: active agent 2.8 g/kg oral, alone or with additive. On the procedure:
The endolymphatic hydrops-decompression effect of saccharides or sugar alcohols was evaluated by assaying as below in triplicate. Firstly, guinea pigs received the surgical obliteration of the endolymphatic sac in the left ear to prepare “experimental model animals with endolymphatic hydrops”. The surgical obliteration of the endolymphatic sac was carried out by burning the extraskeletal portion in the endolymphatic sac with a bipolar electrocoagulator. An endolymphatic sac plays an important role in the absorption of endolymphatic fluid. The inhibition of absorption of endolymphatic fluid was caused by burning the endolymphatic sac to prepare an experimental endolymphatic hydrops. Those hydrops are progressively formed. The size of hydrops becomes constant 2 weeks to month after the surgery and maintained for several months. In detail, see Non-patent Reference 8 for the surgery.
After 1 month, they were divided into 3 groups: Group 2-1 (groups 1-6), 60 animals; Group 2-2 (groups 7-10), 40 animals; and Group 2-3 (groups 11-20), […]. The animals in Group 2-1 received saccharides or sugar alcohols alone (Reference Example 5). The animals in Group 2-2 orally received saccharides or sugar alcohols added polysaccharides. The animals in Group 2-3 received other combinations of saccharides or sugar alcohols added polysaccharides. Animals were sacrificed after the oral administration and the observation and the assessment the gastrointestinal condition, and observed the morphological change of the cochlea mainly in the operated side (left side), in particular of the endolymphatic hydrops decompression effect.
I were obtained left sides of the temporal bones immediately following fixation and kept them in 10% formalin solution for 10 days or more. They were decalcified with 5% trichloroacetic acid and dehydrated with alcohol in increasing concentration, then embedded in paraffin and celloidin. The prepared blocks were cut serially in the horizontal plane. The mid-modiolar sections were stained in hematoxylin and eosin and studied under a light microscope. For the quantitative assessment of changes of the endolymphatic space, the change ratios of the length of Reissner's membrane and the cross-sectional area of the scala media in each turn were measured from the mid-modiolar sections of the cochlea.
From these parameters, the increase ratios (%) of the length of Reissner's membrane (IR-L) and the cross-sectional area (%) of the scala media (IR-S) of a total of four turns were calculated according to the equation as described below:
The increase ratio of the length of Reissner's membrane (IR-L)=100×Σ(Lx−L*x)/ΣL*x (x: first, second, third and fourth turns)
The increase ratio of the cross-section area of the scala media (IR-S)=100×Σ(Sx−S*x)/ΣS*x (x: first, second, third and fourth turns)
Since almost no difference is shown in the regression lines of each group, it cannot be understood that there is the decompression effect of erythritol alone. When endolymphatic hydrops is formed, the cross-sectional area of scala media and the length of Reissner's membrane will increase. It can be assumed from FIG. 1 that there is statistically a primary correlation between both of them in the operated side in the control group. The regression lines are; IR-S (distilled water)=4.011+1.212*IR-L (distilled water); R2=0.987, IR-S (1 hour after)=5.409+1.1*IR-L (1 hour after); R2=0.903, IR-S (2 hours after)=1.125+0.992*IR-L (2 hours after); R2=0.98, IR-S (3 hours after)=2.407+1.309*IR-L (3 hours after); R2=0.974, IR-S (6 hours after)=7.36+1.147*IR-L (6 hours after); R2=0.895, IR-S (12 hours after)=8.089+1.152*IR-L (12 hours after); R2=0.918.
The difference of decompression effect on endolymphatic hydrops depending on dose of pectin added and time-course of the decompression effect can hardly determined by comparing and analyzing the average and standard deviation of IR-L and IR-S in the operated side in each groups. […]

Another series relates to guinea pigs. The series is described as follows: Reference Example 7: erythritol or isosorbitol added jelly, conditions of feces and gastrointestinal tract. It counts as in vivo. The text has this: As described hereinbefore, erythritol or isosorbitol as saccharides or sugar alcohols added jelly as a thickner were orally administered to 10 guinea pigs (280 to 350 g body weight) as shown in Table 41. The conditions of feces were observed.

The test system of series [2] is guinea pigs excreting normal feces. The series can be described thus: Antidiarrheal effect: observation of feces after oral administration of saccharides or sugar alcohols with or without polysaccharides (Example 1). It counts as in vivo. On the procedure: The criteria for analyzing the conditions of feces (hardness, shape and spaces of feces in the intestine) are as shown in Table 2:
The hardness and microscopic findings of feces from the group administered with distilled water were assessed as “Normal” scoring 3, the feces having normal shape and the shape could rather easily change by pushing with fingers were assessed as “Slightly soft” scoring 2, those of which the shape had already changed or it could quite easily change by pushed with fingers were assessed as “Soft” scoring 1, and those of which the shape is muddy or watery or of no shape were assessed “Muddy” scoring 0. To be precese, there are no watery feces because of the nature of diets and thus the muddy feces correspond to watery and muddy feces in human.
Since the muddy feces comprise large content of water, they induce the high abdominal pressure and the flatulence and distension. […] In the case of gas generation, it appears that noxious symptom such as the flatulence and distension are synergistically deteriorated. Therefore, we assessed not only based on the hardness of feces, but also the size, smoothness of the surface and amount of feces.
In these experiments, I observed is the diarrhea caused by saccharides or sugar alcohols and antidiarrhreal effect of saccharides. Guinea pigs orally received saccharides or sugar alcohols, for example tetrose such as erythritol, pentose such as xylitol or xylose, hexose such as isosorbitol or the like in combination with or without polysaccharides for observation of the feces up to 6 hours after the administration.
Guinea pigs (body weight 280 to 320 g, normal feces) were divided into four groups: for Group 1-a, xylitol alone (Reference Example 1), or xylitol and xanthan gum or pectin; for Group 1-b, xylose alone (Reference Example 2), xylose and xanthan gum or pectin; for Group 1-c, erythritol alone (Reference Example 3), erythritol and pectin, erythritol and xanthan gum, or erythritol, pectin and natural aluminum silicate gel or calcium carbonate; and for Group 1-d, isosorbitol alone (Reference Example 4), or isosorbitol and xanthan gum or pectin were orally administered, respectively. The compounds are dissolved in distilled water and 8 ml/kg of said solution were administered as a single dose.
The feces were observed during 6 hours after the administration. When the animals fell into the most serious condition, the hardness and shape of the feces from said animals were assessed as the effect by saccharides or sugar alcohols in the animals.

The test system is the same in series [3]. The description is as above. The series is classed as in vivo. The conditions noted are these: maltitol 2.8 g/kg oral, alone or with additive; average of 4 animals; score 0 muddy to 4 hard.
In the next series the test system is endolymphatic hydrops. The conditions noted are these: systemic administration; cited from earlier work.
Setting [4] is: operated ears, 3 hours after, listed as IB alone.
[5] abbreviates: operated side, perfusion 3 hours after.
[6] abbreviates: agent 2.8 g/kg oral + Jelly 0.1 g/kg, 5 animals.
Setting [7] is: agent 2.8 g/kg oral + Jelly 0.25 g/kg, 5 animals.
[8] abbreviates: agent 2.8 g/kg oral, no additive dosage (agent alone).
Setting [9] is: active agent 1.4 g/kg oral, within 6 hours.
Where [10] appears, read: active agent 2.1 g/kg oral, within 6 hours.
Setting [11] is: active agent 2.8 g/kg oral, alone or with additive of the label.
[12] abbreviates: active agent 2.8 g/kg oral, alone or with additives of the label, most serious condition within 6 hours.
[13] abbreviates: active agent 3.5 g/kg oral, alone or with additive of the label, within 6 hours.
[14] abbreviates: active agent 5.6 g/kg oral, alone or with additive of the label, within 6 hours.
The mark [15] stands for this setting: maltitol 2.8 g/kg oral, alone or with additive of the label (Table 6).
Where [16] appears, read: maltitol 2.8 g/kg oral, alone or with additive, average of 4 animals, score 0 muddy to 4 hard.

Where “and” joins values, the source holds several entries; their conditions need not be identical. Identical values can stand only once.

Take `O[C@@H]1CO[C@H]2[C@@H]1OC[C@@H]2O` [Isosorbitol]: in the series on endolymphatic space, the “Time until exertion of effect after the oral administration” value is roughly 6 h. Besides, in series [1] (setting [4]), the “Regression line IR-S vs IR-L: Y-intercept” value is 7.143 and 6.542. In series [1] (setting [4]), the “Regression line IR-S vs IR-L: slope” value was 1.003 and 1.011. Besides, the “IR-L (%) increase ratio of the length of Reissner's membrane” value in series [1] (setting [5]) stood at 31.3 ± 36.5%. Besides, the “IR-S (%) increase ratio of the cross-sectional area of the scala media” value in series [1] (setting [5]) is listed as 40.9 ± 38.2%. Besides, the “Hardness of feces: Muddy (number of animals)” value (“Hardness of feces: Muddy” for short) was 1 in the series with guinea pigs (setting [6]); 0 with guinea pigs (setting [7]); 1 with guinea pigs (setting [8]); 0 in series [2] (setting [9]); 0 in series [2] (setting [10]); 1 in series [2] (setting [12]). For the same compound, the “Hardness of feces: Muddy” value in series [2] (setting [13]) and in series [2] (setting [14]) was 3 each time. Moreover, the “Hardness of feces: Normal (number of animals)” value (“Hardness of feces: Normal” for short) in the series with guinea pigs (setting [6]) stood at 2; in the series with guinea pigs (setting [7]), 2; in the series on guinea pigs (setting [8]), 2; in series [2] (setting [9]) it was 3; in series [2] (setting [10]) it was 0; in series [2] (setting [12]) it was 2. The “Hardness of feces: Normal” value in series [2] (setting [13]) and in series [2] (setting [14]) was 0 in each case. Also, the “Hardness of feces: Slightly soft (number of animals)” value (from here on “Hardness of feces: Slightly soft”) came out at 0 with guinea pigs (setting [6]); 0 in the series on guinea pigs (setting [7]); 2 in the series on guinea pigs (setting [8]); 1 in series [2] (setting [9]); 2 in series [2] (setting [10]); 2 in series [2] (setting [12]). Also, the “Hardness of feces: Slightly soft” value in series [2] (setting [13]) and in series [2] (setting [14]) was 0 throughout. For the same compound, the “Hardness of feces: Soft (number of animals)” value (“Hardness of feces: Soft” for short) in the series on guinea pigs (setting [6]) is 2; with guinea pigs (setting [7]), 3; in the series on guinea pigs (setting [8]), 3; in series [2] (setting [9]) it was 0; in series [2] (setting [10]), 2; in series [2] (setting [12]), 2. For the same compound, the “Hardness of feces: Soft” value is 1 in series [2] (setting [13]) and 0 in series [2] (setting [14]). The “Time after administration of the peak (most serious) diarrhea” value in series [2] (setting [11]) was “Three to four hours after”. In addition, the “Time after administration when diarrhea / softening of feces started” value in series [2] (setting [11]) was found to be 2 h. Besides, the “Time after administration when feces recovered to (almost) normal” value in series [2] (setting [11]) is 6 h.

As for `OC[C@@H](O)[C@@H](O[C@H]1O[C@H](CO)[C@@H](O)[C@H](O)[C@H]1O)[C@H](O)[C@@H](O)CO` [Maltitol, maltitol], in series [3], the “Hardness of feces (average score), 12 hr after the administration” value stood at 0; the “Hardness of feces (average score), 18 hr after the administration” value stood at 1.2; the “Hardness of feces (average score), 24 hr after the administration” value is given as 2.5. In series [2] (setting [11]), the “Abdominal distension / gas by inspections and palpations” value is recorded as “abdominal distension was observed”; the “Time after administration when diarrhea / softening of feces started” value turned out to be 3 h; the “Time after administration when feces recovered to (almost) normal” value was no less than 24 h. Moreover, in series [2] (setting [15]), the “Hardness of feces: Hard (number of animals)” value turned out to be 0, the “Hardness of feces: Muddy” value is given as 6, the “Hardness of feces: Normal” value is 0 and the “Hardness of feces: Slightly soft” value was 0. The “Hardness of feces: Soft” value in series [2] (setting [15]) is given as 0. Further, in series [2] (setting [16]), the “Hardness of feces (average score), 1 hr after the administration” value came out at 3; the “Hardness of feces (average score), 2 hr after the administration” value was determined as 2.3; the “Hardness of feces (average score), 3 hr after the administration” value is reported as 1.7; the “Hardness of feces (average score), 4 hr after the administration” value came out at 0.2. Further, in series [2] (setting [16]), the “Hardness of feces (average score), 5 hr after the administration” value worked out at 0 and the “Hardness of feces (average score), 6 hr after the administration” value was 0.

Turning to `Cc1ccccc1C(=O)Nc1ccc(C(=O)N2CCCC(N(C)C)c3ccccc32)cc1` (centres unmarked) [OPC 31260], in the series with endolymphatic hydrops, the “Decompression effect on endolymphatic hydrops” value is listed as “did not reveal the decompression effect” and the “Effect in the normal ear” value was “formation of endolymphatic hydrops in the normal ear”.

Values taken from patent publication US8445461B2, “Pharmaceutical composition for meniere's disease” (Setsuko Takeda, priority 2007, dated 2013).
